The values that follow come from publication PMC11397260, “Towards New Delivery Agents for Boron Neutron Capture Therapy: Synthesis and In Vitro Evaluation of a Set of Fluorinated Carbohydrate Derivatives” (Molecules, 2024).

One data set addresses T1, GLUT1 (Homo sapiens, UniProt P11166).
T1 construct: host or cells: CAL 27
T1 sequence (P11166 1-492): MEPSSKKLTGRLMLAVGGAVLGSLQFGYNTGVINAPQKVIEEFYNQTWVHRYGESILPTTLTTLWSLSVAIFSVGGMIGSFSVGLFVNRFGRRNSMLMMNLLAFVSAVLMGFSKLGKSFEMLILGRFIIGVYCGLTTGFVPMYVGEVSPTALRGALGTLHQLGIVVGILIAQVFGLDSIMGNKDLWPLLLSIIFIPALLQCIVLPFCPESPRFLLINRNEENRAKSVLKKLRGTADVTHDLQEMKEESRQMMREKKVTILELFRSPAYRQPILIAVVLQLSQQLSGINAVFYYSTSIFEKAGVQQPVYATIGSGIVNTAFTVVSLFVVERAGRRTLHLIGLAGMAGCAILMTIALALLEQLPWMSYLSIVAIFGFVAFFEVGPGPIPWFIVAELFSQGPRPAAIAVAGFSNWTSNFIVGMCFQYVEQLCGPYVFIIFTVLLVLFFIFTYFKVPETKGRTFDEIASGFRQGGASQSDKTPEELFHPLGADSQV
As to the kind of experiment: cis-inhibition assay of [14C]-D-glucose uptake (GLUT1 affinity) in CAL 27 cells. It is filed as cell-based. To be noted: incubation time 5 min. An excerpt:
GLUT affinity: In a strategy targeting the GLUTs, it is important to study whether the monosaccharide delivery agents will be able to compete for the transporters with the high D-glucose levels found in blood. For these purposes, we utilized our previously developed cis-inhibition assay in the CAL 27 cell line. In addition to having accurate protocols for assessment of GLUT-affinity, we have previously studied the GLUT1 expression and verified its function in the CAL 27 cell line. Thus, a strong foundation was available for the current study and we employed an identical protocol herein in the assessment of GLUT affinity, i.e., in assessing to which extent the delivery agents will be able to compete for the GLUTs against the natural substrate D-glucose.
(§1) The CAL 27 (ATCC CRL-2095) cells used in all assays were acquired from ATCC (Manassas, VA, USA) and cultured in Dulbecco’s Modified Eagle Medium (DMEM) supplemented with L-glutamine (2.0 mM), heat-inactivated fetal bovine serum (10%), and penicillin (50 U/mL)-streptomycin (50 μg/mL) at 37 °C with 5% CO2 and 95% relative humidity.
The GLUT1 affinity assay was conducted following our previously established protocol. Stock solutions of the glycoconjugates were prepared in DMSO. From the stock solutions, the samples employed in the study were prepared by diluting the stock solutions in glucose-free HBSS-buffer to reach concentrations of 0.1–1800 μM. The cells were incubated at RT for 5 min with glycoconjugates 1–4, BSH or BPA over the concentration range given above. The glucose-free HBSS buffer as such was used as a blank control. In more detail, the solutions included 1.8 μM ([…]) of [^14C]-D-glucose in 250 μL of glucose-free HBSS (Hanks’ balanced salt solution). Ice-cold buffer was used for quenching. Cell lysis was performed using 0.1 M NaOH (250 μL) and then mixed with an emulsifier safe cocktail (1.0 mL) (PerkinElmer, Waltham, MA, USA). The radioactivity was measured with a liquid scintillation counter (MicroBeta2 counter, PerkinElmer, Waltham, MA, USA), and the IC50 values were calculated through nonlinear regression analysis.

Data set [1] can be described thus: Plasma protein binding, equilibrium dialysis, human plasma. It is filed as in vitro ADME. The conditions noted are these: 1 μM, results similar in human and mouse. On the procedure:
(§2) Through the plasma protein binding assay, we sought to provide a baseline for future assessment of the ADME-properties of FDM derivative 4. In more detail, this assay would let us evaluate to which extent the FDM derivative 4 would remain in an unbound state in the presence of plasma proteins. These studies were performed through the standard equilibrium dialysis protocol at the time points of 0 and 6 h employing a concentration of 1 μM. While the studies were performed in both human and mouse plasma, the results were similar in both cases. Being a relatively lipophilic species, it was unsurprising that the FDM derivative 4 bound in significant amounts to the plasma proteins (~97% bound vs. 3% unbound).
The working solutions of test compounds were prepared in DMSO at the concentrations of 10 mM and the working solution of control compound ketoconazole was prepared in DMSO at the concentration of 200 μM. 3 μL of the working solutions were removed to mix with 597 μL of plasma to achieve a final concentration of 1 μM or 50 μM (0.5% DMSO). The plasma samples were vortexed thoroughly. […]
For orientation: Equilibrium dialysis compares concentrations on both sides of a semipermeable membrane.

The nature of data set [2]: Plasma stability, human plasma. The conditions noted are these: 50 μM. It is filed as in vitro ADME. The protocol:
(§3) These studies provide important insights into the stability and behavior of the delivery agent in a biological setting, which is a key factor at later stages of the development pipeline. The serum stability studies were performed in both human and mouse plasma at a set concentration of 50 μM over a time period of 24 h. Propantheline (5 μM) was utilized as a control substrate for validating the assay. […] In human plasma, the stability profile was distinct. […] While the boron delivery agent 4 does decompose in human plasma over time, the rate at which this occurs is acceptable when taking into account that the recommended guidelines for FDG imaging, thus tumor delivery, is between 55–75 min post administration. Nevertheless, the ortho-carboranylmethyl-substituent is likely to affect the pharmacokinetic properties of the delivery agents and thus comprehensive biodistribution studies will be needed in the future to assess these factors in more detail.
10 mM working solutions of the test compound was prepared in DMSO and a 1 mM working solution of the control compound propantheline was prepared in acetonitrile. 4 µL of working solutions was spiked to 796 µL of pre-incubated plasma to reach a final concentration of 50 µM or 5 µM. The final concentration of solvent was 0.5%. 50 µL aliquots of the spiked plasma were added into new tubes for 1, 4, 8 and 24 h and incubated at 37 °C water bath with shaking at 60 rpm. The assay was performed in duplicate. The reaction was stopped by adding 300 µL of RT quench solution (acetonitrile containing internal standards (IS, 100 nM Alprazolam, 500 nM Labetalol, and 2 µM Ketoprofen)) to the spiked plasma samples at the appointed time points. […] Peak area ratios were determined from extracted ion chromatograms. Percent compounds remaining at each time point were calculated by the following equation:Remaining Percentage t h (%) = Peak Area Ratio t h/Peak Area Ratio 0 h × 100 where Peak Area Ratio t h is the peak area ratio of control and test compound at t h; Peak Area Ratio 0 h is the peak area ratio of control and test compound at zero time point.

The nature of data set [3]: Plasma protein binding, equilibrium dialysis, mouse plasma. The conditions noted are these: 1 μM, results similar in human and mouse. It is filed as in vitro ADME. On the procedure: as §2
The working solutions of test compounds were prepared in DMSO at the concentrations of 10 mM and the working solution of control compound ketoconazole was prepared in DMSO at the concentration of 200 μM. 3 μL of the working solutions were removed to mix with 597 μL of plasma to achieve a final concentration of 1 μM or 50 μM (0.5% DMSO). The plasma samples were vortexed thoroughly. A total of 50 µL of the spiked plasma sample was transferred to 50 μL of blank buffer, and then either incubated for 6 h (37 °C with 5% CO2) or immediately quenched by the addition of 300 μL of RT quench solution (acetonitrile containing internal standards (IS, 200 nM labetalol, 100 nM tolbutamide and 100 nM ketoprofen) to precipitate protein and the mixture was vortex for 5 min.
The dialysis membranes were soaked in ultrapure water for 60 min to separate strips, then in 20% ethanol for 20 min, and finally in dialysis buffer for 20 min. The dialysis apparatus was assembled according to the manufacturer’s instructions. Each cell was filled with 120 μL of spiked plasma sample and dialyzed against equal volume of dialysis buffer (PBS). The assay was performed in duplicate. The dialysis plate was sealed and incubated in an incubator at 37 °C with 5% CO2 at 100 rpm for 6 h. […]

A further data set deals with CAL 27 cells. Put plainly: Boron delivery capacity (boron uptake) by ICP-MS. It is filed as cell-based, human. To be noted: 10–400 μM, 5 min and 120 min, compared with BPA and BSH and within the series. On the procedure:
Boron delivery capacity: A central property of boron delivery agents is their boron delivery capacity. […] Herein, we studied the boron delivery capacity at two time points (5 min, and 120 min) over the concentration range of 10–400 μM (see summary in Figure 4). Our previously employed protocol was utilized in order to be able to compare the results to those obtained earlier. In short, after quenching of the incubation, washing, lysis, and digestion with nitric acid, the boron content could be determined by ICP-MS.
as §1
The boron uptake studies were performed according to our earlier reported protocol. The samples used in the boron uptake studies were prepared as described above for the affinity studies. The cells were preincubated. Glycoconjugates 1–4 at various concentrations (10–400 μM in 250 μL of HBSS) were added, and incubation continued for […] 120 min at RT. […] Milli-Q water (USF Elga Purelab Ultra, Veolia Water Technologies, High Wycombe, UK) was added to bring the sample volume to 10 mL, and the boron content was measured in triplicates using ICP-MS. […]

The nature of data set [4]: Plasma stability, mouse plasma. The format is in vitro ADME. The conditions noted are these: 50 μM. The protocol:
as §3, with “Nevertheless, the ortho-carboranylmethyl-substituent is likely to affect the pharmacokinetic properties of the delivery agents and thus comprehensive biodistribution studies will be needed in the future to assess these factors in more detail.” left out
10 mM working solutions of the test compound was prepared in DMSO and a 1 mM working solution of the control compound propantheline was prepared in acetonitrile. […] Peak area ratios were determined from extracted ion chromatograms. Percent compounds remaining at each time point were calculated by the following equation:Remaining Percentage t h (%) = Peak Area Ratio t h/Peak Area Ratio 0 h × 100 where Peak Area Ratio t h is the peak area ratio of control and test compound at t h; Peak Area Ratio 0 h is the peak area ratio of control and test compound at zero time point.

In general, IC50 refers to the midpoint of a concentration-inhibition curve. With “2-deoxy-2-fluoro-4-O-carboranylmethyl-D-glucopyranose [Compound 2]”, at GLUT1, the IC50 was determined as 57.5 µM.
For “2-deoxy-2-fluoro-4-O-carboranylmethyl-D-mannopyranose [Compound 4]”, the “bound to plasma proteins” value in data set [1] and in data set [3] (equilibrium dialysis) was ~ 97% throughout. The unbound in data set [1] and in data set [3] (equilibrium dialysis) was 3% in each case. In addition, the “stability in human plasma” value in data set [2] (1 h) is listed as “remained stable”. In addition, the remained intact was 86.7% in data set [2] (4 h) and 39.5% in data set [2] (24 h). For the same molecule, the “remained in the bound state” value in data set [3] (6 h mark) was 80–87%. The molecule further displayed an IC50 against GLUT1 of 59.5 µM. Also, in the data set with CAL 27 cells, the boron delivery capacity result is “best delivery agent out of the series synthesized”. In addition, the conjugate remaining intact is given as 84.7% in data set [4] (1 h) and 60% in data set [4] (24 h).
“2-deoxy-2-fluoro-6-O-carboranylmethyl-D-glucopyranose [Compound 1]” had an IC50 at GLUT1 of 78.3 µM.
On the same count and under the same terms, the result for “2-deoxy-2-fluoro-6-O-carboranylmethyl-D-mannopyranose [Compound 3]” reads 62.6 µM; that for `OC[C@H]1OC(O)[C@H](O)[C@@H](O)[C@@H]1O` (stereo partly shown) [D -Glc, reference compound], greater than 1000 µM.
